Measured values from ChEMBL document CHEMBL1133332, “Conversion of a polysaccharide to nitric oxide-releasing form. Dual-mechanism anticoagulant activity of diazeniumdiolated heparin” (2000).

Columns and labels:
Homo sapiens [1] = species on record: Homo sapiens; assay: compound (at 25 micro g/ml) was tested for antithrombotic activity; type: functional
Homo sapiens [2] = species on record: Homo sapiens; assay: Compound (at 25 micro g/ml) was tested for antithrombotic activity in presence of heparin; type: functional

Row | Structure (SMILES) | Thrombin time (Homo sapiens [1]) | Thrombin time (Homo sapiens [2])
1 | CO[C@H]1O[C@H](COS(=O)(=O)O)[C@@H](O[C@@H]2O[C@H](C(=O)O)[C@@H](OC)[C@H](O)[C@H]2O)[C@H](OS(=O)(=O)O)[C@H]1NS(=O)(=O)O [HEPARIN/DIAZENIUMDIOLATE CONJUGATE] | 92 s | 
2 | CO[C@H]1O[C@H](CN2CCNCC2)[C@@H](O[C@@H]2O[C@H](C(=O)O)[C@@H](OC)[C@H](O)[C@H]2O)[C@H](OS(=O)(=O)O)[C@H]1NS(=O)(=O)O [HEPARIN/DIAZENIUMDIOLATE CONJUGATE] |  | 31 s
3 | COCO/N=[N+](\[O-])N1CCN(C[C@H]2O[C@H](OC)[C@H](NS(=O)(=O)O)[C@@H](OS(=O)(=O)O)[C@@H]2O[C@@H]2O[C@H](C(=O)O)[C@@H](OC)[C@H](O)[C@H]2O)CC1 [HEPARIN/DIAZENIUMDIOLATE CONJUGATE] |  | 80 s
